In patent US20220315554A1, “COMPOUNDS COMPRISING A […] LIGAND AND USE THEREOF” (priority 2019, published 2022) one finds IC50 data, which are given here for twelve molecules.

For test [1], the target named is T1, FAP-expressing human WI-38 fibroblasts (Homo sapiens, UniProt Q12884).
T1 construct: FAP-expressing human WI-38 fibroblasts (ECACC) were cultured in EMEM; host or cells: WI-38 human fibroblasts
T1 sequence (Q12884 1-760): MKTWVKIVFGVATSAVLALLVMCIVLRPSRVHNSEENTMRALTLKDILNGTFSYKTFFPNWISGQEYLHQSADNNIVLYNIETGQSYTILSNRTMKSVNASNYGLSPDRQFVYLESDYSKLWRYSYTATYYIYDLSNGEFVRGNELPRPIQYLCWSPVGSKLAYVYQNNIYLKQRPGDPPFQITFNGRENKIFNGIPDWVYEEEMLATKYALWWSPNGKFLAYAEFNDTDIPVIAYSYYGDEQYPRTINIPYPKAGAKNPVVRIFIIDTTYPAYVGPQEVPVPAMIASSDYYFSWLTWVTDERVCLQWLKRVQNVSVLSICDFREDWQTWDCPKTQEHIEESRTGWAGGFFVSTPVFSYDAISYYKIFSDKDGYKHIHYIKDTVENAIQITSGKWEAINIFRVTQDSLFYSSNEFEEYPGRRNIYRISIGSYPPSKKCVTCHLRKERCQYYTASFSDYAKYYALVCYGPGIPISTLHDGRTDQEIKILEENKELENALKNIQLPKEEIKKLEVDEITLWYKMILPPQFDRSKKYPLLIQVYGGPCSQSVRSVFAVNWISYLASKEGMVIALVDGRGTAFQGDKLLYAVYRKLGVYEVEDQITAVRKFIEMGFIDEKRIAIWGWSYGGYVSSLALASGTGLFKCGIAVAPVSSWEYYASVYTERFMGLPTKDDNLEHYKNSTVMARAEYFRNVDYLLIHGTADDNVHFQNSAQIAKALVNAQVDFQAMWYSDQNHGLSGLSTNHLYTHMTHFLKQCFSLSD
As to the kind of experiment: Competitive FACS binding assay. The following applies: pIC50 Category (FACS), competition with 3 nM Cy5-labeled compound, WI-38 fibroblasts, 4° C., 1 hour. The procedure:
Cells were analyzed in an Attune NxT flow cytometer. […]

In a further test the target is T2, Human recombinant FAP (Homo sapiens, UniProt Q12884).
T2 sequence (Q12884 1-760): T1 sequence (Q12884 1-760)
Briefly: FRET-based FAP protease activity assay. The test is classed as biochemical. More on the design: purchased R&D systems 3715-SE. The settings on record: pIC50 Category (Activity), recombinant human FAP, FRET substrate, 37° C.

Molecules are shown by their SMILES. Numbered stars: 1 amine (or outer) side, 2 acyl side, 3 side chain; on linkers, the order of the positions; unused ones are H or OH. Bridge positions count the residues as written; N and C are the ends. Square brackets hold non-standard residues; d marks the D form. Peptide text beside a SMILES is read from it. * marks the point of attachment. X3 = NC(=O)[C@H](CCCCNC(=O)CN1CCN(CC(=O)O)CCN(CC(=O)O)CCN(CC(=O)O)CC1)NC(=O)CCC(=O)NCCCOCCOCCOCCCN*; mXylylene = c1cc(C[*:1])cc(C[*:2])c1; 3Pal = N[C@@H](Cc1cccnc1)C(=O)O; 2Thi = N[C@@H](Cc1cccs1)C(=O)O; Hexanoyl = CCCCCC(=O)*

The IC50 is the concentration at which inhibition is half-maximal. Regarding `CSCC[C@H](NC(C)=O)C(=O)N[C@H]1CSCc2cccc(c2)CSC[C@@H](C(=O)N[C@@H](CC(=O)O)C(=O)N[C@@H](Cc2c[nH]cn2)C(=O)N[C@@H](Cc2cccnc2)C(=O)N[C@@H](CCCNC(=N)N)C(=O)N[C@@H](CC(=O)O)C(N)=O)NC(=O)[C@H](Cc2ccccc2)NC(=O)[C@H](CCC(=O)O)NC(=O)[C@H]([C@@H](C)O)NC(=O)[C@@H]2CCCN2C(=O)[C@@H]2CCCN2C1=O` [3BP-3192, Ac-Met-[Cys(3MeBn)-Pro-Pro-Thr-Glu-Phe-Cys]-Asp-His-Mpa-Arg-Asp-NH2] (Ac-MCPPTEFCDH[3Pal]RD-NH2; linker 2-8 via mXylylene), the IC50 (in test [1]; on Human recombinant FAP) was less than 0.01 µM each time.

Consider `CSCC[C@H](NC(C)=O)C(=O)N[C@H]1CSCc2cccc(c2)CSC[C@@H](C(=O)N[C@@H](CC(=O)O)C(=O)N[C@@H](Cc2c[nH]cn2)C(=O)N[C@@H](Cc2cccs2)C(=O)N[C@@H](CCCNC(=N)N)C(=O)N[C@@H](CC(=O)O)C(N)=O)NC(=O)[C@H](Cc2ccccc2)NC(=O)[C@H](CCC(=O)O)NC(=O)[C@H]([C@@H](C)O)NC(=O)[C@@H]2CCCN2C(=O)[C@@H]2CCCN2C1=O` [3BP-3193, Ac-Met-[Cys(3MeBn)-Pro-Pro-Thr-Glu-Thi-Cys]-Asp-His-Phe-Arg-Asp-NH2] (Ac-MCPPTEFCDH[2Thi]RD-NH2; linker 2-8 via mXylylene), for which the IC50 (in test [1]; at Human recombinant FAP) was less than 0.01 µM in each case.

In the case of `CSCC[C@H](NC(C)=O)C(=O)N[C@H]1CSCc2cccc(c2)CSC[C@@H](C(=O)N[C@@H](C)C(=O)N[C@@H](Cc2c[nH]cn2)C(=O)N[C@@H](Cc2ccccc2)C(=O)N[C@@H](CCCNC(=N)N)C(=O)N[C@@H](CC(=O)O)C(N)=O)NC(=O)[C@H](Cc2ccccc2)NC(=O)[C@H](CCC(=O)O)NC(=O)[C@H]([C@@H](C)O)NC(=O)[C@@H]2CCCN2C(=O)[C@@H]2CCCN2C1=O` [3BP-3194, Ac-Met-[Cys(3MeBn)-Pro-Pro-Thr-Glu-Phe-Cys]-Ala-His-Phe-Arg-Asp-NH2] (Ac-MCPPTEFCAHFRD-NH2; linker 2-8 via mXylylene), the IC50 (in test [1]; at Human recombinant FAP) was 0.01 to 0.0794 µM each time.

Consider `CSCC[C@H](NC(C)=O)C(=O)N[C@H]1CSCc2cccc(c2)CSC[C@@H](C(=O)N[C@@H](CC(=O)O)C(=O)N[C@@H](C)C(=O)N[C@@H](Cc2ccccc2)C(=O)N[C@@H](CCCNC(=N)N)C(=O)N[C@@H](CC(=O)O)C(N)=O)NC(=O)[C@H](Cc2ccccc2)NC(=O)[C@H](CCC(=O)O)NC(=O)[C@H]([C@@H](C)O)NC(=O)[C@@H]2CCCN2C(=O)[C@@H]2CCCN2C1=O` [3BP-3195, Ac-Met-[Cys(3MeBn)-Pro-Pro-Thr-Glu-Phe-Cys]-Asp-Ala-Phe-Arg-Asp-NH2] (Ac-MCPPTEFCDAFRD-NH2; linker 2-8 via mXylylene), for which the IC50 in test [1] was less than 0.01 µM; at Human recombinant FAP, 0.01 to 0.0794 µM.

Turning to `CSCC[C@H](NC(C)=O)C(=O)N[C@H]1CSCc2cccc(c2)CSC[C@@H](C(=O)N[C@@H](CC(=O)O)C(=O)N[C@@H](Cc2c[nH]cn2)C(=O)N[C@@H](Cc2ccccc2)C(=O)N[C@@H](C)C(=O)N[C@@H](CC(=O)O)C(N)=O)NC(=O)[C@H](Cc2ccccc2)NC(=O)[C@H](CCC(=O)O)NC(=O)[C@H]([C@@H](C)O)NC(=O)[C@@H]2CCCN2C(=O)[C@@H]2CCCN2C1=O` [3BP-3197, Ac-Met-[Cys(3MeBn)-Pro-Pro-Thr-Glu-Phe-Cys]-Asp-His-Phe-Ala-Asp-NH2] (Ac-MCPPTEFCDHFAD-NH2; linker 2-8 via mXylylene), the IC50 (in test [1]; at Human recombinant FAP) was 0.1 to 0.794 µM throughout.

For the molecule `CSCC[C@H](NC(C)=O)C(=O)N[C@H]1CSCc2cccc(c2)CSC[C@@H](C(=O)N[C@@H](CC(=O)O)C(=O)N[C@@H](Cc2c[nH]cn2)C(=O)N[C@@H](Cc2ccccc2)C(=O)N[C@@H](CCCNC(=N)N)C(=O)N[C@@H](C)C(N)=O)NC(=O)[C@H](Cc2ccccc2)NC(=O)[C@H](CCC(=O)O)NC(=O)[C@H]([C@@H](C)O)NC(=O)[C@@H]2CCCN2C(=O)[C@@H]2CCCN2C1=O` [3BP-3198, Ac-Met-[Cys(3MeBn)-Pro-Pro-Thr-Glu-Phe-Cys]-Asp-His-Phe-Arg-Ala-NH2] (Ac-MCPPTEFCDHFRA-NH2; linker 2-8 via mXylylene), the IC50 (in test [1]; at Human recombinant FAP) was less than 0.01 µM in each case.

For the molecule `CSCC[C@H](NC(C)=O)C(=O)N[C@H]1CSCc2cccc(c2)CSC[C@@H](C(=O)N[C@@H](CC(=O)O)C(=O)N[C@@H](Cc2c[nH]cn2)C(=O)N[C@@H](Cc2ccccc2)C(N)=O)NC(=O)[C@H](Cc2ccccc2)NC(=O)[C@H](CCC(=O)O)NC(=O)[C@H]([C@@H](C)O)NC(=O)[C@@H]2CCCN2C(=O)[C@@H]2CCCN2C1=O` [3BP-3199, Ac-Met-[Cys(3MeBn)-Pro-Pro-Thr-Glu-Phe-Cys]-Asp-His-Phe-NH2] (Ac-MCPPTEFCDHF-NH2; linker 2-8 via mXylylene), the figures for the IC50 (in test [1]; on Human recombinant FAP) were 0.1 to 0.794 µM and 0.01 to 0.0794 µM, respectively.

On to `CSCC[C@H](NC(C)=O)C(=O)N[C@H]1CSCc2cccc(c2)CSC[C@@H](C(=O)N[C@@H](CC(=O)O)C(=O)N[C@@H](Cc2c[nH]cn2)C(=O)N[C@@H](Cc2ccccc2)C(=O)N[C@@H](CCCNC(=N)N)C(N)=O)NC(=O)[C@H](Cc2ccccc2)NC(=O)[C@H](CCC(=O)O)NC(=O)[C@H]([C@@H](C)O)NC(=O)[C@@H]2CCCN2C(=O)[C@@H]2CCCN2C1=O` [3BP-3200, Ac-Met-[Cys(3MeBn)-Pro-Pro-Thr-Glu-Phe-Cys]-Asp-His-Phe-Arg-NH2] (Ac-MCPPTEFCDHFR-NH2; linker 2-8 via mXylylene), for which the IC50 (in test [1]; at Human recombinant FAP) was less than 0.01 µM throughout.

With `CSCC[C@H](NC(C)=O)C(=O)N[C@H]1CSCc2cccc(c2)CSC[C@@H](C(=O)N[C@@H](CC(=O)O)C(=O)N[C@@H](Cc2c[nH]cn2)C(=O)N[C@@H](Cc2ccccc2)C(=O)N[C@@H](CCCNC(=N)N)C(=O)N[C@H](CC(=O)O)C(N)=O)NC(=O)[C@H](Cc2ccccc2)NC(=O)[C@H](CCC(=O)O)NC(=O)[C@H]([C@@H](C)O)NC(=O)[C@@H]2CCCN2C(=O)[C@@H]2CCCN2C1=O` [3BP-3213, Ac-Met-[Cys(3MeBn)-Pro-Pro-Thr-Glu-Phe-Cys]-Asp-His-Phe-Arg-asp-NH2] (Ac-MCPPTEFCDHFR[dD]-NH2; linker 2-8 via mXylylene), the IC50 (in test [1]; at Human recombinant FAP) was less than 0.01 µM throughout.

On to `CSCC[C@H](NC(C)=O)C(=O)N[C@H]1CSCc2cccc(c2)CSC[C@@H](C(=O)N[C@@H](CC(=O)O)C(=O)N[C@@H](Cc2c[nH]cn2)C(=O)N[C@@H](Cc2ccccc2)C(=O)N[C@@H](CCCNC(=N)N)C(=O)N[C@@H](CC(=O)O)C(N)=O)NC(=O)[C@H](Cc2ccccc2)NC(=O)[C@H](CCC(=O)O)NC(=O)[C@H]([C@@H](C)O)NC(=O)[C@@H]2CCCN2C(=O)CNC1=O` [3BP-3214, Ac-Met-[Cys(3MeBn)-Gly-Pro-Thr-Glu-Phe-Cys]-Asp-His-Phe-Arg-Asp-NH2] (Ac-MCGPTEFCDHFRD-NH2; linker 2-8 via mXylylene), for which the IC50 (in test [1]; at Human recombinant FAP) was less than 0.01 µM in each case.

In the case of `CSCC[C@H](NC(C)=O)C(=O)N[C@H]1CSCc2cccc(c2)CSC[C@@H](C(=O)N[C@@H](CC(=O)O)C(=O)N[C@@H](Cc2c[nH]cn2)C(=O)N[C@@H](Cc2ccccc2)C(=O)N[C@@H](CCCNC(=N)N)C(=O)N[C@@H](CC(=O)O)C(N)=O)NC(=O)[C@H](Cc2ccccc2)NC(=O)[C@H](CCC(=O)O)NC(=O)[C@H]([C@@H](C)O)NC(=O)[C@@H]2CCCN2C(=O)[C@@H](C)NC1=O` [3BP-3215, Ac-Met-[Cys(3MeBn)-ala-Pro-Thr-Glu-Phe-Cys]-Asp-His-Phe-Arg-Asp-NH2] (Ac-MC[dA]PTEFCDHFRD-NH2; linker 2-8 via mXylylene), the IC50 (in test [1]; at Human recombinant FAP) was 0.1 to 0.794 µM each time.

`CCCCCC(=O)N[C@H]1CSCc2cccc(c2)CSC[C@@H](C(=O)N[C@@H](CC(=O)O)C(=O)N[C@@H](Cc2c[nH]cn2)C(=O)N[C@H](Cc2ccccc2)C(=O)N[C@@H](CCCNC(=N)N)C(=O)NCCCOCCOCCOCCCNC(=O)CCC(=O)N[C@@H](CCCCNC(=O)CN2CCN(CC(=O)O)CCN(CC(=O)O)CCN(CC(=O)O)CC2)C(N)=O)NC(=O)[C@H](Cc2ccccc2)NC(=O)[C@H](CCC(=O)O)NC(=O)[C@H]([C@@H](C)O)NC(=O)[C@@H]2CCCN2C(=O)[C@@H]2CCCN2C1=O` [3BP-3276, Hex-[Cys(3MeBn)-Pro-Pro-Thr-Glu-Phe-Cys]-Asp-His-phe-Arg-Ttds-Lys(DOTA)-NH2] (Hexanoyl-CPPTEFCDH[dF]R-X3; linker 1-7 via mXylylene): the IC50 (in test [1]; at Human recombinant FAP) was less than 0.01 µM in each case.
